In experiment [1] the test system is Methicillin Resistant Staphylococcus aureus strain USA 200. As to the kind of experiment: Minimum inhibitory concentration (MIC), CLSI broth micro-dilution, S. aureus. It counts as cell-based. Particulars: Staphylococcus aureus, MRSA / USA200; Table 6; MRSA USA 200; cation adjusted Mueller Hinton Broth + 0.002% Tween-80; 35° C., 22 hours. In short, it runs like this: (§1)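 Colonies grown 20 h at 35° C on Trypticase Soy agar (MRSA) or Luria agar (E. coli) were suspended in cation-adjusted Mueller Hinton broth with 0.002% Tween-80. Suspensions were added at OD600 0.0005 to 10-point twofold compound dilutions, then incubated 22 h at 35° C.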

The test system of experiment [2] is Escherichia coli ATCC 25922. As to the kind of experiment: Minimum inhibitory concentration (MIC), CLSI broth micro-dilution, E. coli. Particulars: Escherichia coli, ATCC25922, 22 h, Table 6, cation adjusted Mueller Hinton Broth + 0.002% Tween-80, 35° C. It counts as cell-based. Put shortly: as §1

One may read the MIC as the lowest concentration found to suppress growth. In the case of `Cc1cc(-c2ccc(OC(C)C)cc2)nc(C)c1C(=O)N[C@@H](CCN)C(=O)N(C)[C@@H]1C(=O)N[C@@H](C)C(=O)N[C@H](C(=O)NCC#N)Cc2ccc(OCCN)c(c2)-c2cc1ccc2OCCN` (racemic) [Compound 360, rac-(8S,11S,14S)-3,18-bis(2-aminoethoxy)-N-(cyanomethyl)-11-methyl-14-[methyl-[rac-(2S)-4-amino-2-[[6-(4-isopropoxyphenyl)-2,4-dimethyl-pyridine-3-carbonyl]amino]butanoyl]amino]-10,13-dioxo-9,12-diazatricyclo[13.3.1.12,6]icosa-1(18),2(20),3,5,15(19),16-hexaene-8-carboxamide], the results for the MIC in experiment [1] and in experiment [2] were 0.066 µM and 0.26 µM, respectively.
Taken in the same sequence, the figures for `Cc1nc([C@H]2CC[C@H](C(C)(C)C)CC2)nc(C)c1C(=O)N[C@@H](CCN)C(=O)N(C)[C@@H]1C(=O)N[C@@H](C)C(=O)N[C@H](C(=O)NCC#N)Cc2ccc(OCCN)c(c2)-c2cc1ccc2OCCN` [Compound 296, rac-(8S,11S,14S)-3,18-bis(2-aminoethoxy)-N-(cyanomethyl)-11-methyl-14-[methyl-[rac-(2S)-4-amino-2-[[2-(4-tert-butylcyclohexyl)-4,6-dimethyl-pyrimidine-5-carbonyl]amino]butanoyl]amino]-10,13-dioxo-9,12-diazatricyclo[13.3.1.12,6]icosa-1(18),2(20),3,5,15(19),16-hexaene-8-carboxamide] were 0.016 µM and 0.38 µM.
Taken in the same sequence, the figures for `CCCCCCOc1ccc(-c2nc(C)c(C(=O)N[C@@H](CCN)C(=O)N(C)[C@@H]3C(=O)N[C@@H](C)C(=O)N[C@H](C(=O)NCC#N)Cc4ccc(OCCN)c(c4)-c4cc3ccc4OCCN)c(C)n2)cc1` (racemic) [Compound 332, rac-(8S,11S,14S)-3,18-bis(2-aminoethoxy)-N-(cyanomethyl)-11-methyl-14-[methyl-[rac-(2S)-4-amino-2-[[2-(4-hexoxyphenyl)-4,6-dimethyl-pyrimidine-5-carbonyl]amino]butanoyl]amino]-10,13-dioxo-9,12-diazatricyclo[13.3.1.12,6]icosa-1(18),2(20),3,5,15(19),16-hexaene-8-carboxamide] were 0.0078 µM and 0.063 µM.
On the same counts, the results for `Cc1nc(C(C)(C)c2ccc(C(C)(C)C)cc2)nc(C)c1C(=O)N[C@@H](CCN)C(=O)N(C)[C@@H]1C(=O)N[C@@H](C)C(=O)N[C@H](C(=O)NCC#N)Cc2ccc(OCCN)c(c2)-c2cc1ccc2OCCN` (racemic) [Compound 288, rac-(8S,11S,14S)-3,18-bis(2-aminoethoxy)-N-(cyanomethyl)-11-methyl-14-[methyl-[rac-(2S)-4-amino-2-[[2-[1-(4-tert-butylphenyl)-1-methyl-ethyl]-4,6-dimethyl-pyrimidine-5-carbonyl]amino]butanoyl]amino]-10,13-dioxo-9,12-diazatricyclo[13.3.1.12,6]icosa-1(18),2(20),3,5,15(19),16-hexaene-8-carboxamide] are 0.023 µM and 1.5 µM.
Regarding `CCCCCCc1ccc2cc(C)c(C(=O)N[C@@H](CCN)C(=O)N(C)[C@@H]3C(=O)N[C@@H](C)C(=O)N[C@H](C(=O)NCC#N)Cc4ccc(OCCN)c(c4)-c4cc3ccc4OCCN)cc2c1` (racemic) [Compound 400, rac-(8S,11S,14S)-3,18-bis(2-aminoethoxy)-N-(cyanomethyl)-11-methyl-14-[methyl-[rac-(2S)-4-amino-2-[(7-hexyl-3-methyl-naphthalene-2-carbonyl)amino]butanoyl]amino]-10,13-dioxo-9,12-diazatricyclo[13.3.1.12,6]icosa-1(18),2(20),3,5,15(19),16-hexaene-8-carboxamide], the MIC in experiment [1] was determined as 0.047 µM; in experiment [2] it was 0.25 µM.
Taken in the same sequence, the figures for `Cc1nc(-c2ccc(OCCC(C)C)cc2)nc(C)c1C(=O)N[C@@H](CCN)C(=O)N(C)[C@@H]1C(=O)N[C@@H](C)C(=O)N[C@H](C(=O)NCC#N)Cc2ccc(OCCN)c(c2)-c2cc1ccc2OCCN` (racemic) [Compound 329, rac-(8S,11S,14S)-3,18-bis(2-aminoethoxy)-N-(cyanomethyl)-11-methyl-14-[methyl-[rac-(2S)-4-amino-2-[[2-(4-isopentyloxyphenyl)-4,6-dimethyl-pyrimidine-5-carbonyl]amino]butanoyl]amino]-10,13-dioxo-9,12-diazatricyclo[13.3.1.12,6]icosa-1(18),2(20),3,5,15(19),16-hexaene-8-carboxamide] were 0.011 µM and 0.11 µM.
For `CCCCCCCCCCCCCC(=O)N1C[C@H](N)CC1C(=O)N(C)[C@@H]1C(=O)N[C@@H](C)C(=O)N[C@H](C(=O)NCC#N)Cc2ccc(OCCN)c(c2)-c2cc1ccc2OCCN` (mixture of isomers) [Compound 482, rac-(8S,11S,14S)-3,18-bis(2-aminoethoxy)-14-[(4-amino-1-tetradecanoyl-pyrrolidine-2-carbonyl)-methyl-amino]-N-(cyanomethyl)-11-methyl-10,13-dioxo-9,12-diazatricyclo[13.3.1.12,6]icosa-1(18),2(20),3,5,15(19),16-hexaene-8-carboxamide], the results for the MIC in experiment [1] and in experiment [2] were 0.036 µM and 0.24 µM, respectively.
On the same counts, the results for `Cc1nc(-c2ccc(N3CCCCCCC3)cc2)nc(C)c1C(=O)N[C@@H](CCN)C(=O)N(C)[C@@H]1C(=O)N[C@@H](C)C(=O)N[C@H](C(=O)NCC#N)Cc2ccc(OCCN)c(c2)-c2cc1ccc2OCCN` (racemic) [Compound 326, rac-(8S,11S,14S)-3,18-bis(2-aminoethoxy)-N-(cyanomethyl)-11-methyl-14-[methyl-[rac-(2S)-4-amino-2-[[2-[4-(azocan-1-yl)phenyl]-4,6-dimethyl-pyrimidine-5-carbonyl]amino]butanoyl]amino]-10,13-dioxo-9,12-diazatricyclo[13.3.1.12,6]icosa-1(18),2(20),3,5,15(19),16-hexaene-8-carboxamide] are 0.031 µM and 0.13 µM.
Taken in the same sequence, the figures for `Cc1nc(-c2ccc(C(C)(C)C)cc2)c(N)cc1C(=O)N[C@@H](CCN)C(=O)N(C)[C@@H]1C(=O)N[C@@H](C)C(=O)N[C@H](C(=O)NCC#N)Cc2ccc(OCCN)c(c2)-c2cc1ccc2OCCN` (racemic) [Compound 405, rac-(8S,11S,14S)-3,18-bis(2-aminoethoxy)-N-(cyanomethyl)-11-methyl-14-[methyl-[rac-(2S)-4-amino-2-[[5-amino-6-(4-tert-butylphenyl)-2-methyl-pyridine-3-carbonyl]amino]butanoyl]amino]-10,13-dioxo-9,12-diazatricyclo[13.3.1.12,6]icosa-1(18),2(20),3,5,15(19),16-hexaene-8-carboxamide] were 0.063 µM and 0.38 µM.
Taken in the same sequence, the figures for `CCCCCc1ccc(-c2ncc(C(=O)N[C@@H](CCNC(N)=O)C(=O)N(C)[C@@H]3C(=O)N[C@@H](C)C(=O)N[C@H](C(=O)NCC#N)Cc4ccc(OCCN)c(c4)-c4cc3ccc4OCCN)c(C)n2)cc1` (racemic) [Compound 451, rac-(8S,11S,14S)-3,18-bis(2-aminoethoxy)-N-(cyanomethyl)-11-methyl-14-[methyl-[rac-(2S)-2-[[4-methyl-2-(4-pentylphenyl)pyrimidine-5-carbonyl]amino]-4-ureido-butanoyl]amino]-10,13-dioxo-9,12-diazatricyclo[13.3.1.12,6]icosa-1(18),2(20),3,5,15(19),16-hexaene-8-carboxamide] were 0.047 µM and 0.76 µM.
For `CCc1ccc(-c2nc(C)c(C(=O)N[C@@H](CCN)C(=O)N(C)[C@@H]3C(=O)N[C@@H](C)C(=O)N[C@H](C(=O)NCC#N)Cc4ccc(OCCN)c(c4)-c4cc3ccc4OCCN)c(C)n2)cc1` (racemic) [Compound 260, rac-(8S,11S,14S)-3,18-bis(2-aminoethoxy)-N-(cyanomethyl)-11-methyl-14-[methyl-[rac-(2S)-4-amino-2-[[2-(4-ethylphenyl)-4,6-dimethyl-pyrimidine-5-carbonyl]amino]butanoyl]amino]-10,13-dioxo-9,12-diazatricyclo[13.3.1.12,6]icosa-1(18),2(20),3,5,15(19),16-hexaene-8-carboxamide], the MIC in experiment [1] stood at 0.079 µM; in experiment [2], 0.45 µM.
Turning to `Cc1nc(-c2ccc(C(C)(C)C)cc2)ncc1C(=O)N[C@@H](CCN)C(=O)N[C@@H]1C(=O)N[C@@H](C)C(=O)N[C@H](C(=O)NCC#N)Cc2ccc(OCCN)c(c2)-c2cc1ccc2OCCN` (racemic) [Compound 472, rac-(8S,11S,14S)-3,18-bis(2-aminoethoxy)-N-(cyanomethyl)-11-methyl-10,13-dioxo-14-[[rac-(2S)-4-amino-2-[[2-(4-tert-butylphenyl)-4-methyl-pyrimidine-5-carbonyl]amino]butanoyl]amino]-9,12-diazatricyclo[13.3.1.12,6]icosa-1(18),2(20),3,5,15(19),16-hexaene-8-carboxamide], the MIC in experiment [1] came out at 0.0085 µM; in experiment [2] it was 0.11 µM.
In the case of `C=Cc1ccc(-c2nc(C)c(C(=O)N[C@@H](CCN)C(=O)N(C)[C@@H]3C(=O)N[C@@H](C)C(=O)N[C@H](C(=O)NCC#N)Cc4ccc(OCCN)c(c4)-c4cc3ccc4OCCN)c(C)n2)cc1` (racemic) [Compound 265, rac-(8S,11S,14S)-3,18-bis(2-aminoethoxy)-N-(cyanomethyl)-11-methyl-14-[methyl-[rac-(2S)-4-amino-2-[[4,6-dimethyl-2-(4-vinylphenyl)pyrimidine-5-carbonyl]amino]butanoyl]amino]-10,13-dioxo-9,12-diazatricyclo[13.3.1.12,6]icosa-1(18),2(20),3,5,15(19),16-hexaene-8-carboxamide], the MIC was 0.068 µM in experiment [1] and 0.41 µM in experiment [2].
